Entries after “also recorded” stand apart in the source; their conditions may differ.
What was measured:
[1] = system: calpains; conditions: cited from earlier work
Source text: This activity is mainly achieved by an ∼10^4-fold increase in the kcat without a significant change in the Km ([39]), by an unknown mechanism. Although this amidase-like calpain activity may be involved in as-yet-unknown physiological functions, there has been no further report on it.

[2] = biological target: T1, C1 (Merck Millipore #208712) (Sus scrofa, UniProt P35750); assay: Cleavage sites in whole proteins by N-terminal sequencing and MS/MS; format: biochemical; conditions: C1 0.9 pmol, 100 mM Tris-HCl pH 7.5, 5 mM CaCl2, 30 °C, 20 min; peptide sequencing and LC-MS/MS
T1 construct: purchased Merck Millipore 208712
T1 sequence (P35750 1-714): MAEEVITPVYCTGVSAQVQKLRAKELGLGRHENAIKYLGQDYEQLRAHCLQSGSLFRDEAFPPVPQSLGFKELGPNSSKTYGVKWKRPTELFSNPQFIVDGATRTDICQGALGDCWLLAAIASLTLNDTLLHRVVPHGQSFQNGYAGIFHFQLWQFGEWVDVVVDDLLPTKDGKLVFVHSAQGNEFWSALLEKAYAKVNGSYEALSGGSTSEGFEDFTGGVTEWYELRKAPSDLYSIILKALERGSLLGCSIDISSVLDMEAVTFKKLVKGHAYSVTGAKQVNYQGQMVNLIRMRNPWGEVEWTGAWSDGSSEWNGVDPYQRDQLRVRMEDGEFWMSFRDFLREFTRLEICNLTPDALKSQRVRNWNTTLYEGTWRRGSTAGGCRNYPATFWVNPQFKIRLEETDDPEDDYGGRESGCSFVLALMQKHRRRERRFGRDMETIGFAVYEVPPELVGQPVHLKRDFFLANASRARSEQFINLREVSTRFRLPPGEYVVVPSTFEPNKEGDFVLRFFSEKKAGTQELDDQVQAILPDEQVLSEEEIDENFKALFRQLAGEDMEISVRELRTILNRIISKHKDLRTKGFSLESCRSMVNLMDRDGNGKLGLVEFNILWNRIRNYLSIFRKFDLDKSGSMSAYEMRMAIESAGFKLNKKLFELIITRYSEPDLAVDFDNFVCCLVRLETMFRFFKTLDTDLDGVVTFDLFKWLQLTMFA
T1 sequence (P04574 1-266 partner): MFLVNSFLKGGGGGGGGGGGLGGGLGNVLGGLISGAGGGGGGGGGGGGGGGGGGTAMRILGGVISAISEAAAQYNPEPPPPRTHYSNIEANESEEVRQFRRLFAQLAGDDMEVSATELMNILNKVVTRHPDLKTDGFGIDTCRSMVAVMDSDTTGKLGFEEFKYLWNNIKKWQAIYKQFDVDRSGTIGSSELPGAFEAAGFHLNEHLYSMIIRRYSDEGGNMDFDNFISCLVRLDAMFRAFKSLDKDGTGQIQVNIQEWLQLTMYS
Description: Human heart troponin T2 (Merck 648484–100UGA, ca. 30 pmol) and horse myoglobin (Sigma-Aldrich, M0630, ca. 60 pmol) were digested with C1 (Merck Millipore #208712, 0.9 pmol) in 50 μl of 100 mM Tris-HCl (pH 7.5), 1 mM DTT, and 5 mM CaCl2 at 30 °C for 20 min. The digested samples were directly separated by SDS-PAGE, and the proteolyzed fragments were then blotted onto a PVDF membrane and subjected to peptide sequencing analysis (AproScience Inc., Tokushima, Japan). For sequence analysis by MS, the same digestion reactions were performed, terminated by adding a 3-fold volume of 7% TCA followed by incubation on ice for 30 min, spun (20,000 × g, 2 °C, 10 min), and the supernatant was collected. An aliquot of the soluble fraction was desalted and concentrated to a few μl using Zip-Tip C-18, and analyzed by Sciex 5600^+ with the Eksigent nanoLC system. The samples were analyzed in triplicate, the data were merged, and the peptide sequences were identified using ProteinPilot (Ver. 4.5) and Swiss-Prot DB (2015_08; 549,008 sequences; 195,692,017 aars) using the default parameters.

Molecule | kcat/Km for hydrolysis of the NH2 group at the C terminus (amidase-like activity) [1] | calpain cleavage sites detected in the whole protein [2]
RPKPQQFFGLM-NH2 [substance P] | 10^6 M^−1s^−1 | –
horse myoglobin: horse myoglobin (Sigma-Aldrich, M0630; P68082) (protein, UniProt P68082 2-154, looked up) Myoglobin: GLSDGEWQQVLNVWGKVEADIAGHGQEVLIRLFTGHPETLEKFDKFKHLKTEAEMKASEDLKKHGTVVLTALGGILKKKGHHEAELKPLAQSHATKHKIPIKYLEFISDAIIHVLHSKHPGDFGADAQGAMTKALELFRNDIAAKYKELGFQG | – | Lys^51/Thr^52; also recorded: Gly^152/Phe^153

From publication PMC4824854, “Predictions of Cleavability of Calpain Proteolysis by Quantitative Structure-Activity Relationship Analysis Using Newly Determined Cleavage Sites and Catalytic Efficiencies of an Oligopeptide Array” (Molecular & Cellular Proteomics : MCP, 2016)
